From publication doi:10.1101/538157v1 (biorxiv, 2019) come the findings set out here.

The target in the first experiment is T1, CAMKK2-KD (kinase domain of CAMKK2) (Homo sapiens, UniProt Q96RR4). In words: biochemical. To be noted: read-out: ΔTm (°C) 96-well.
T1 sequence (Q96RR4 161-449): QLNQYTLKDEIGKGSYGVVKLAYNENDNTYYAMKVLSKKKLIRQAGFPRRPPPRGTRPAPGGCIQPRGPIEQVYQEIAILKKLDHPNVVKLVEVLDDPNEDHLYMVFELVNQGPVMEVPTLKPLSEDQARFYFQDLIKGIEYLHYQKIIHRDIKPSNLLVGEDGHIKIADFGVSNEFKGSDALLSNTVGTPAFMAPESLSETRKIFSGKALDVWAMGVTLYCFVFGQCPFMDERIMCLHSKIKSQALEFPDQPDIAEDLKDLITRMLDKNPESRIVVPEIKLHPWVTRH
What is called ΔTm is the shift of the melting midpoint relative to a reference. Take `Cn1cc(/C=C2\C(=O)Nc3ccc(S(N)(=O)=O)cc32)c2ccccc21` [Syk Inhibitor]: the ΔTm at 12 µM was found to be 9.4 °C.

Consider `c1ccc(-c2cnc(Nc3ccc(OCCN4CCCC4)cc3)s2)cc1` [Flt3 Inhibitor III], for which the ΔTm at 12 µM was 7.5 °C.

Take `COc1cc2c(Nc3cc(Cl)c(OC)c(Cl)c3)c(C#N)cnc2cc1OCCCN1CCN(C)CC1` [Bosutinib isomer]: the ΔTm at 12 µM came out at 4.1 °C.

For the compound `CC(C)(C)c1nc2c3cc[nH]c(=O)c3c3cc(F)ccc3c2[nH]1` [JAK Inhibitor I], the ΔTm at 12 µM came to 4.7 °C.

The next experiment concerns the target T1, CAMKK2-KD (kinase domain of CAMKK2). In words: isothermal titration calorimetry. The format is binding.
Conditions: not given
On the technique in general: In ITC the heat of successive injections is recorded.
Usually Kd stands for the equilibrium constant for the complex coming apart. A higher Kd goes with weaker binding. `CC[C@@H]1C(=O)N(C)c2cnc(Nc3ccc(C(=O)N[C@H]4CC[C@H](N5CCN(CC6CC6)CC5)CC4)cc3OC)nc2N1C(C)C` [BI 6727]: the Kd is 8.1 nM.

`COc1cc(N2CCC(N(C)C)CC2)ccc1Nc1ncc(Cl)c(Nc2ccccc2P(C)(C)=O)n1` [ALK-IN-1] came in with a Kd of 5.8 nM.
